Test results: patent publication US11780826B2 (Amgen Inc., priority 2017, dated 2023)

Each compound was assayed on Bovine cardiac myofibrils (assay: In vitro model of dose-dependent myofibril ATPase modulation (AC1.4, pyruvate kinase/lactate dehydrogenase-coupled ATPase assay at pCa25)). Details: concentration at which ATPase activity was 1.4-fold higher than the bottom of the dose curve, mean of a minimum of two independent tests.
Format: biochemical
In short: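 Coupled-enzyme ATPase on bovine heart myofibrils, 1 mM ATP, EGTA/CaCl2 buffered; 340 nm readout.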
`O=C(NCc1ccc(C(F)(F)F)cc1)[C@H]1CCCN1C(=O)[C@H]1CCCN(S(=O)(=O)N2CCC2c2ccccc2)C1` (stereo partly drawn) [Example 339, 1-(((3S)-1-(((2R)-2-phenyl-1-azetidinyl)sulfonyl)-3-piperidinyl)carbonyl)-N-(4-(trifluoromethyl)benzyl)-D-prolinamide,1-(((3S)-1-(((2S)-2-phenyl-1-azetidinyl)sulfonyl)-3-piperidinyl)carbonyl)-N-(4-(trifluoromethyl)benzyl)-D-prolinamide] showed an AC1.4 of 0.9511 µM. `NS(=O)(=O)c1cccc(C(=O)N2C[C@H]3C[C@H]3[C@@H]2C(=O)N[C@@H](c2cc(F)c(Cl)cc2F)C2CC2)c1` [Example 340, (1R,2R,5S)-N-((R)-(4-chloro-2,5-difluorophenyl)(cyclopropyl)methyl)-3-(3-sulfamoylbenzoyl)-3-azabicyclo[3.1.0]hexane-2-carboxamide] was tested, and the AC1.4 was 0.8898 µM. Work on `C[C@H](C(=O)NCc1ccc(Cl)c(Cl)c1)N(C)C(=O)c1cccc(S(=O)(=O)N2CC(C#N)C2)c1` [Example 341, 3-((3-cyano-1-azetidinyl)sulfonyl)-N-((1R)-2-((3,4-dichlorobenzyl)amino)-1-methyl-2-oxoethyl)-N-methylbenzamide] yielded an AC1.4 of 0.9606 µM. `CS(=O)(=O)c1cncc(C(=O)N2CSC[C@@H]2C(=O)N[C@@H](c2ccc(C(F)(F)F)cc2F)C2CC2)c1` [Example 342, (4S)-N-((R)-cyclopropyl(2-fluoro-4-(trifluoromethyl)phenyl)methyl)-3-((5-(methylsulfonyl)-3-pyridinyl)carbonyl)-1,3-thiazolidine-4-carboxamide] was tested, and the AC1.4 was 0.9661 µM. Compound `O=C(NCc1ccc(C(F)(F)F)cc1)[C@H]1CCCN1C(=O)[C@H]1CCCN(S(=O)(=O)N2CC(OC(F)F)C2)C1` [Example 343, 1-(((3S)-1-((3-(difluoromethoxy)-1-azetidinyl)sulfonyl)-3-piperidinyl)carbonyl)-N-(4-(trifluoromethyl)benzyl)-D-prolinamide] has an AC1.4 of 0.9742 µM. `CS(=O)(=O)c1cccc(C(=O)N2[C@@H](C(=O)N[C@@H](c3ccc(Cl)cc3F)C3CC3)C[C@H]3C[C@H]32)c1` [Example 344, (1R,3R,5R)-N-((R)-(4-chloro-2-fluorophenyl)(cyclopropyl)methyl)-2-(3-(methylsulfonyl)benzoyl)-2-azabicyclo[3.1.0]hexane-3-carboxamide] was tested, and the AC1.4 was 0.9555 µM. Work on `CS(=O)(=O)c1ccc(N)c(C(=O)N2CCC[C@@H]2C(=O)N[C@@H](c2ccc(C(F)(F)F)cc2F)C2CC2)c1` [Example 345, 1-(2-amino-5-(methylsulfonyl)benzoyl)-N-((R)-cyclopropyl(2-fluoro-4-(trifluoromethyl)phenyl)methyl)-D-prolinamide] yielded an AC1.4 of 0.9744 µM. `COC(=O)CN(C)S(=O)(=O)c1cccc(C(=O)N2CCC[C@@H]2C(=O)NCc2ccc(C(F)(F)F)cc2)c1` [Example 346, methyl (R)-2-(N-methyl-3-(2-((4-(trifluoromethyl)benzyl)carbamoyl)pyrrolidine-1-carbonyl)phenylsulfonamido)acetate] gave an AC1.4 of 1.0139 µM. `O=C(N[C@@H](c1ccc(C(F)(F)F)cc1F)C1CC1)[C@H]1CCCCN1C(=O)c1cccc(C(O)C(F)(F)F)c1` (stereo partly drawn) [Example 347, (2R)-N-((R)-cyclopropyl(2-fluoro-4-(trifluoromethyl)phenyl)methyl)-1-(3-(2,2,2-trifluoro-1-hydroxyethyl)benzoyl)piperidine-2-carboxamide] gave an AC1.4 of 1.0255 µM. For `N#CC1CN(S(=O)(=O)N2CCC[C@H](C(=O)N3[C@@H](C(=O)NCc4ccc(C(F)(F)F)cn4)C[C@H]4C[C@H]43)C2)C1` [Example 348, (1R,3R,5R)-2-(((3S)-1-((3-cyano-1-azetidinyl)sulfonyl)-3-piperidinyl)carbonyl)-N-((5-(trifluoromethyl)-2-pyridinyl)methyl)-2-azabicyclo[3.1.0]hexane-3-carboxamide], the AC1.4 was 1.0273 µM. For `NC(=O)C1(c2cccc(C(=O)N3[C@@H](C(=O)N[C@@H](c4ccc(C(F)(F)F)cc4F)C4COC4)C[C@H]4C[C@H]43)c2)CC1` [Example 349, (1R,3R,5R)-2-(3-(1-carbamoylcyclopropyl)benzoyl)-N-((R)-(2-fluoro-4-(trifluoromethyl)phenyl)(3-oxetanyl)methyl)-2-azabicyclo[3.1.0]hexane-3-carboxamide], the AC1.4 was 1.0296 µM. `O=C(NCc1ccc(C(F)(F)F)cc1)[C@H]1CCCN1C(=O)c1cccc(S(=O)(=O)N2CC3(CC3)C2)c1` [Example 350, 1-((3-(5-azaspiro[2.3]hex-5-ylsulfonyl)phenyl)carbonyl)-N-(4-(trifluoromethyl)benzyl)-D-prolinamide] gave an AC1.4 of 1.0349 µM. With `O=C(N[C@@H](c1ccc(C(F)(F)F)cc1F)C1COC1)[C@H]1C[C@H]2C[C@H]2N1C(=O)c1ccccc1NC(=O)C(F)(F)F` [Example 351, (1R,3R,5R)-N-((R)-(2-fluoro-4-(trifluoromethyl)phenyl)(3-oxetanyl)methyl)-2-(2-(2,2,2-trifluoroacetamido)benzoyl)-2-azabicyclo[3.1.0]hexane-3-carboxamide] the AC1.4 was 1.0354 µM. In the case of `CS(=O)(=O)c1cccc(C(=O)N2C[C@@H](F)C[C@@H]2C(=O)N[C@@H](c2ccc(Cl)cc2F)C2COC2)c1` [Example 352, (4S)-N-((R)-(4-chloro-2-fluorophenyl)(3-oxetanyl)methyl)-4-fluoro-1-(3-(methylsulfonyl)benzoyl)-D-prolinamide], the AC1.4 is reported as 0.9758 µM. For `N#CC1CN(S(=O)(=O)N2CCC[C@H](C(=O)N3CCC[C@@H]3C(=O)NCc3cccc(C(F)(F)F)c3)C2)C1` [Example 353, 1-(((3S)-1-((3-cyano-1-azetidinyl)sulfonyl)-3-piperidinyl)carbonyl)-N-(3-(trifluoromethyl)benzyl)-D-prolinamide], the AC1.4 was 1.0398 µM. Compound `CS(=O)(=O)c1cccc(C(=O)N2C[C@H](C(F)F)C[C@@H]2C(=O)N[C@@H](c2ccc(C(F)(F)F)cc2F)C2CC2)c1` [Example 354, (4R)-N-((R)-cyclopropyl(2-fluoro-4-(trifluoromethyl)phenyl)methyl)-4-(difluoromethyl)-1-(3-(methylsulfonyl)benzoyl)-D-prolinamide] has an AC1.4 of 1.0425 µM. In the case of `N#C[C@H]1C[C@H](S(=O)(=O)c2cccc(C(=O)N3CCCC[C@@H]3C(=O)NCc3ccc(C(F)(F)F)nc3)c2)C1` [Example 355, (2R)-1-((3-((trans-3-cyanocyclobutyl)sulfonyl)phenyl)carbonyl)-N-((6-(trifluoromethyl)-3-pyridinyl)methyl)-2-piperidinecarboxamide], the AC1.4 is reported as 1.0472 µM. With `N#CC1CN(S(=O)(=O)N2CCC[C@H](C(=O)N3CCC[C@@H]3C(=O)NCc3cc(F)cc(F)c3F)C2)C1` [Example 356, 1-(((3S)-1-((3-cyano-1-azetidinyl)sulfonyl)-3-piperidinyl)carbonyl)-N-(2,3,5-trifluorobenzyl)-D-prolinamide] the AC1.4 was 1.0535 µM. In the case of `Cc1cc(CNC(=O)[C@H]2CCCN2C(=O)[C@H]2CCCN(S(=O)(=O)N3CC(C#N)C3)C2)cc(C(F)(F)F)c1` [Example 358, 1-(((3S)-1-((3-cyano-1-azetidinyl)sulfonyl)-3-piperidinyl)carbonyl)-N-(3-methyl-5-(trifluoromethyl)benzyl)-D-prolinamide], the AC1.4 is reported as 1.0947 µM.
